Literature values in patent US6631329B1, “Use of the crystal structure of Staphylococcus aureus isoleucyl-tRNA synthetase in antibiotic design” (Yale University, priority 1999, dated 2003).

Legend:
[1] = target: T1, human isoleucyl-tRNA synthetase (Homo sapiens, UniProt P41252)
T1 sequence (P41252 1-1262): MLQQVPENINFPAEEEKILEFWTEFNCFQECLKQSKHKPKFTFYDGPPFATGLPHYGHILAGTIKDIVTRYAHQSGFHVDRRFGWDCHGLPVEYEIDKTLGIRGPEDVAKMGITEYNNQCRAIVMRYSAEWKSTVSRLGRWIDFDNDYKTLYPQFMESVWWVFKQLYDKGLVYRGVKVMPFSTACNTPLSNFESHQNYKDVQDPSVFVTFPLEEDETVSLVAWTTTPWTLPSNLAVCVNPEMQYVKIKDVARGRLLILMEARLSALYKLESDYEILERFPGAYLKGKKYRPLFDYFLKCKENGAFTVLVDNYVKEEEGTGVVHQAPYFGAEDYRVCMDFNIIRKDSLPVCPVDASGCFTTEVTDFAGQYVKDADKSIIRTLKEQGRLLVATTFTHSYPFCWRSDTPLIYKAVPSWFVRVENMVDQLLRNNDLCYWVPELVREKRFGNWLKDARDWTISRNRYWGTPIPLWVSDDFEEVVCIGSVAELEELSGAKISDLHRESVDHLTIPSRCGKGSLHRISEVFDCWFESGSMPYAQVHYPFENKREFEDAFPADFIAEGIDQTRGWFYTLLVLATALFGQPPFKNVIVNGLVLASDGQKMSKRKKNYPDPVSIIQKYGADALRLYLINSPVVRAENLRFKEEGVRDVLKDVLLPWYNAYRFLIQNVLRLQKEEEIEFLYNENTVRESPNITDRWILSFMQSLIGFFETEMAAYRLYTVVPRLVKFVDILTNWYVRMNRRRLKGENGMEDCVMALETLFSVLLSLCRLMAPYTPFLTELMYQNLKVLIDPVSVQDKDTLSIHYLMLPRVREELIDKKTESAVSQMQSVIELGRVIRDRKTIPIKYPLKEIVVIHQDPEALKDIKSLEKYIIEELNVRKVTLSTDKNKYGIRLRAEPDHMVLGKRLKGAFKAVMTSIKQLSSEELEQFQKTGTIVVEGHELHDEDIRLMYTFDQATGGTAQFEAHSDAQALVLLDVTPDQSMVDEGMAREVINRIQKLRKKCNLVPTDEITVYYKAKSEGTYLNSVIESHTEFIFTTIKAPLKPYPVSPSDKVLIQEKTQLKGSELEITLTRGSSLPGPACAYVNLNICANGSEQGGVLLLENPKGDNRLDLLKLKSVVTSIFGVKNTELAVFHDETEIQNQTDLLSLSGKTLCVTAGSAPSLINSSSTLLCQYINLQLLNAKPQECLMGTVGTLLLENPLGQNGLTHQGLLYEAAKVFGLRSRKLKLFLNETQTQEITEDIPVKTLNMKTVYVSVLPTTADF

[2] = system: Gram-negative bacterial IRS; conditions: many Gram-negative bacterial IRS
MRSA [3] = conditions: topical use
MRSA [4] = conditions: in vivo
[5] = target: T2, isoleucyl-tRNA synthetase (IRS) (Staphylococcus aureus, UniProt P41972); conditions: with respect to isoleucine
T2 sequence (P41972 1-917): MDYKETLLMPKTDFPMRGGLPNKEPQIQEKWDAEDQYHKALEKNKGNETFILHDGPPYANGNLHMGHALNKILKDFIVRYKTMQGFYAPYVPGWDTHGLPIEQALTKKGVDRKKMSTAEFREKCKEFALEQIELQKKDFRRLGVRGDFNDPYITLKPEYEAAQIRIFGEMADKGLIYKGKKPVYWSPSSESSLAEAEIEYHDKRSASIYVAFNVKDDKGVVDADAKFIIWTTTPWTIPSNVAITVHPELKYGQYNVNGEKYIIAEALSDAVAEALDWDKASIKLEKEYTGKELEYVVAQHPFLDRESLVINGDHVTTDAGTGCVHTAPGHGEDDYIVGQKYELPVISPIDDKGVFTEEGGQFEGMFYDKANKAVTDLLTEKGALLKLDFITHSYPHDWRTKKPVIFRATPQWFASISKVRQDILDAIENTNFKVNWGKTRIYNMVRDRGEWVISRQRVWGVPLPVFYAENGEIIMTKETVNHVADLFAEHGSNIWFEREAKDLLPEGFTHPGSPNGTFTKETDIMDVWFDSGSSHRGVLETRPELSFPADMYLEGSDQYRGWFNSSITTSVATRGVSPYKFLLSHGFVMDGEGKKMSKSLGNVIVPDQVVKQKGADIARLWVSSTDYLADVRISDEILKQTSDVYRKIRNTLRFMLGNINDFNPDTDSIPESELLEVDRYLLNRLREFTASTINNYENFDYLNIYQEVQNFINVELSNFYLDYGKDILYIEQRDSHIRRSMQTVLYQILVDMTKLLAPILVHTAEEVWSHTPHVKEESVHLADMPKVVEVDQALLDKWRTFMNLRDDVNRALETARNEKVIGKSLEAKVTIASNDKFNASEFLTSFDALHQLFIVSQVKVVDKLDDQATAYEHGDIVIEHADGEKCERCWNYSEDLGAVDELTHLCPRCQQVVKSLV

[6] = target: MURSA isoleucyl-tRNA synthetase (Staphylococcus aureus, UniProt P41368)
MRSA [7] = system: MRSA
[8] = system: Pseudomonic fluoscenes (Psefl) enzyme; conditions: SA IRS vs Pseudomonic fluoscenes enzyme

MURSA isoleucyl-tRNA synthetase, sequence (P41368 whole entry): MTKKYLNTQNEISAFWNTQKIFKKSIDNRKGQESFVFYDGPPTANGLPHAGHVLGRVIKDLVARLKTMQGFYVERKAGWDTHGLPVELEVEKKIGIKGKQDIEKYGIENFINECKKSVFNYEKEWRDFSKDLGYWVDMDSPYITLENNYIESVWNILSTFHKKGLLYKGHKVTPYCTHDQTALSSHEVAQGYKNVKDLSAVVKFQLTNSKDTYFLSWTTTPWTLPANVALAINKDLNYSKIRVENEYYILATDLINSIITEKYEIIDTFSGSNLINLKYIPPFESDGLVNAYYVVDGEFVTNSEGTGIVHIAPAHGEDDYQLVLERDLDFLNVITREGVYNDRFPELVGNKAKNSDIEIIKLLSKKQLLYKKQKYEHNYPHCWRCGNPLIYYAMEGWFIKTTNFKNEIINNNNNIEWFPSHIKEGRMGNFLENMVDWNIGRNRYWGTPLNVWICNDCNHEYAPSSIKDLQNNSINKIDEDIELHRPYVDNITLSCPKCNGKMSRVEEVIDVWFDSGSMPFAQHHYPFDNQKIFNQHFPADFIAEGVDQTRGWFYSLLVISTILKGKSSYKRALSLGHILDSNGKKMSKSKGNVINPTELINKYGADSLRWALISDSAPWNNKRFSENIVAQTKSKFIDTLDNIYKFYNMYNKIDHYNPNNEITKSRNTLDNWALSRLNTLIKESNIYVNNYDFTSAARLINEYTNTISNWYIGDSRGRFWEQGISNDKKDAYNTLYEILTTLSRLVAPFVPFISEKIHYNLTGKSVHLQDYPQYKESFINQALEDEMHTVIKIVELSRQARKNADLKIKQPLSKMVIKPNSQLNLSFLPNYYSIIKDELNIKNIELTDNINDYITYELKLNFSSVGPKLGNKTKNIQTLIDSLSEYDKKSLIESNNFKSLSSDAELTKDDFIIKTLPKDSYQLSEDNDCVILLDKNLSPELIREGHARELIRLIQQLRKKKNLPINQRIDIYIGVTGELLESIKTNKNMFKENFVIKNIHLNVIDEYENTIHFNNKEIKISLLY

SMILES	sensitivity of human isoleucyl-tRNA synthetase to the antibiotic [1]	concentration for binding the human enzyme relative to bacterial IRS ([1]; higher than for bacterial IRS)	concentration at which mupirocin inhibits bacterial IRS [2]	eradication of nasal carriage of MRSA (MRSA [3])	eradication of MRSA in skin and virginal infections (MRSA [3]; after failure of intervenous vancomycin therapy)	effectiveness against bacteremia caused by MRSA (MRSA [4])	mode of inhibition of IRS [5]	sensitivity of MURSA isoleucyl-tRNA synthetase to the antibiotic [6]	half-life in vivo (metabolic conversion from pseudomonic acid to monic acid)	effectiveness against MRSA (MRSA [7])	difference in inhibition between SA IRS and Psefl enzyme [8]	activity of the metabolite (in vivo)	clearance in the urine (in vivo)
C/C(=C\C(=O)OCCCCCCCCC(=O)O)C[C@@H]1OC[C@H](C[C@@H]2O[C@H]2[C@@H](C)[C@H](C)O)[C@@H](O)[C@H]1O [Mupirocin, mupirocin]	resistant	3 to 4 orders of magnitude	nM concentrations	very successfully eradicated	eradicated	not very effective	competitive inhibitor for isoleucine	resistant	short	highly effective	10^6		
C/C(=C\C(=O)O)C[C@@H]1OC[C@H](C[C@@H]2O[C@H]2[C@@H](C)[C@H](C)O)[C@@H](O)[C@H]1O [monic acid]												inactive	rapidly cleared
